Experimental data as given in patent US12077503B2, “Substituted cyclic amides and their use as herbicides” (FMC CORPORATION, priority 2015, dated 2024).

Columns and labels:
Type in all cases: in vivo
[1] = test system: redroot pigweed (Amaranthus retroflexus); experiment: Test G Post-Emergence Protocol; conditions: Amaranthus retroflexus, post-emergence, 312 h
In short: (§1)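 Damage was rated 13 days after treatment from 0 (none) to 100 (plant killed). Compound was applied as a spray at 15.625, 62.5 or 250 g/ha in 50:50 acetone/water containing 0.5% Tween 20, onto 8-day-old potted plants kept in a glasshouse (24/16 °C, 14 h light, 65% humidity).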

corn (Zea mays) [2] = experiment: Test G Post-Emergence Protocol; conditions: Zea mays, post-emergence, 312 h
In short: as §1

[3] = test system: giant foxtail (Setaria faberi); experiment: Test G Post-Emergence Protocol; conditions: Setaria faberi, post-emergence, 312 h
In short: as §1

[4] = test system: barnyardgrass (Echinochloa crus-galli); experiment: Test G Post-Emergence Protocol; conditions: Echinochloa crus-galli, post-emergence, 312 h
In short: as §1

[5] = test system: velvetleaf (Abutilon theophrasti); experiment: Test G Post-Emergence Protocol; conditions: Abutilon theophrasti, post-emergence, 312 h
In short: as §1

[6] = test system: ivy-leaved morning glory (Ipomoea hederacea); experiment: Test G Post-Emergence Protocol; conditions: Ipomoea, post-emergence, 312 h
In short: as §1

[7] = test system: redroot pigweed (Amaranthus retroflexus); experiment: Test G Pre-Emergence Protocol; conditions: Amaranthus retroflexus, pre-emergence, 312 h, evaluated after 13 days
In short: (§2)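 Visual injury (0–100) at day 13 after a single pre-emergence spray. Rates: 15.625, 62.5, 250 g/ha in acetone–water 50:50 with 0.5% Tween 20. Growth conditions: 24/16° C, 14 h light, 65% humidity.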

corn (Zea mays) [8] = experiment: Test G Pre-Emergence Protocol; conditions: Zea mays, pre-emergence, 312 h, evaluated after 13 days
In short: as §2

[9] = test system: giant foxtail (Setaria faberi); experiment: Test G Pre-Emergence Protocol; conditions: Setaria faberi, pre-emergence, 312 h, evaluated after 13 days
In short: as §2

[10] = test system: barnyardgrass (Echinochloa crus-galli); experiment: Test G Pre-Emergence Protocol; conditions: Echinochloa crus-galli, pre-emergence, 312 h, evaluated after 13 days
In short: as §2

[11] = test system: velvetleaf (Abutilon theophrasti); experiment: Test G Pre-Emergence Protocol; conditions: Abutilon theophrasti, pre-emergence, 312 h, evaluated after 13 days
In short: as §2

[12] = test system: ivy-leaved morning glory (Ipomoea hederacea); experiment: Test G Pre-Emergence Protocol; conditions: Ipomoea, pre-emergence, 312 h, evaluated after 13 days
In short: as §2

CN1C[C@@H](c2ccc(C(F)(F)F)cc2)[C@H](C(=O)Nc2nnc(C(F)(F)F)[nH]2)C1=O (racemic) [Compound 1550]
40%: pest or weed control at 250 g/ha ([1]; 250 g ai/ha, evaluated after 13 days, read-out: damage to plant, Pigweed, Redroot (100=total damage to plant; 0=no damage to plant))
10%: plant injury at 62.5 g/ha (corn (Zea mays) [2]; 62.5 g ai/ha, evaluated after 13 days, read-out: Corn damage rating (100=total damage to plant; 0=no damage to plant))
30%: pest or weed control at 62.5 g/ha ([1]; 62.5 g ai/ha, evaluated after 13 days, read-out: Pigweed, Redroot damage rating (100=total damage to plant; 0=no damage to plant)) | plant injury at 250 g/ha (corn (Zea mays) [2]; 250 g ai/ha, evaluated after 13 days, read-out: damage to plant, Corn (100=total damage to plant; 0=no damage to plant))
0%: pest or weed control at 15.625 g/ha ([1]; 15.625 g ai/ha, evaluated after 13 days (100=total damage to plant; 0=no damage to plant), read-out: Pigweed, Redroot damage rating) | plant injury at 15.625 g/ha (corn (Zea mays) [2]; 15.625 g ai/ha, evaluated after 13 days (100=total damage to plant; 0=no damage to plant), read-out: Corn damage rating) | pest or weed control at 15.625 g/ha ([3]; 15.625 g ai/ha, evaluated after 13 days (100=total damage to plant; 0=no damage to plant), read-out: Foxtail, Giant damage rating) | pest or weed control at 62.5 g/ha ([3]; 62.5 g ai/ha, evaluated after 13 days, read-out: Foxtail, Giant damage rating (100=total damage to plant; 0=no damage to plant)) | pest or weed control at 250 g/ha ([3]; 250 g ai/ha, evaluated after 13 days, read-out: damage to plant, Foxtail, Giant (100=total damage to plant; 0=no damage to plant)) | pest or weed control at 15.625 g/ha ([4]; 15.625 g ai/ha, evaluated after 13 days (100=total damage to plant; 0=no damage to plant), read-out: Barnyardgrass damage rating) | pest or weed control at 62.5 g/ha ([4]; 62.5 g ai/ha, evaluated after 13 days, read-out: Barnyardgrass damage rating (100=total damage to plant; 0=no damage to plant)) | pest or weed control at 250 g/ha ([4]; 250 g ai/ha, evaluated after 13 days, read-out: damage to plant, Barnyardgrass (100=total damage to plant; 0=no damage to plant)) | pest or weed control at 15.625 g/ha ([5]; 15.625 g ai/ha, evaluated after 13 days (100=total damage to plant; 0=no damage to plant), read-out: Velvetleaf damage rating) | pest or weed control at 62.5 g/ha ([5]; 62.5 g ai/ha, evaluated after 13 days, read-out: Velvetleaf damage rating (100=total damage to plant; 0=no damage to plant)) | pest or weed control at 250 g/ha ([5]; 250 g ai/ha, evaluated after 13 days, read-out: damage to plant, Velvetleaf (100=total damage to plant; 0=no damage to plant)) | pest or weed control at 15.625 g/ha ([6]; 15.625 g ai/ha, evaluated after 13 days (100=total damage to plant; 0=no damage to plant), read-out: Morningglory, Ivy-leaved damage rating) | pest or weed control at 62.5 g/ha ([6]; 62.5 g ai/ha, evaluated after 13 days, read-out: Morningglory, Ivy-leaved damage rating (100=total damage to plant; 0=no damage to plant)) | pest or weed control at 250 g/ha ([6]; 250 g ai/ha, evaluated after 13 days, read-out: damage to plant, Morningglory, Ivy-leaved (100=total damage to plant; 0=no damage to plant)) | pest or weed control at 15.625 g/ha ([7]; 15.625 g ai/ha, read-out: Pigweed, Redroot damage rating (100=total damage to plant; 0=no damage to plant)) | pest or weed control at 62.5 g/ha ([7]; 62.5 g ai/ha, 100=total damage to plant, 0=no damage to plant, read-out: plant damage rating, Pigweed, Redroot) | pest or weed control at 250 g/ha ([7]; 250 g ai/ha, read-out: Pigweed, Redroot damage rating (100=total damage to plant; 0=no damage to plant)) | plant injury at 15.625 g/ha (corn (Zea mays) [8]; 15.625 g ai/ha, read-out: Corn damage rating (100=total damage to plant; 0=no damage to plant)) | plant injury at 62.5 g/ha (corn (Zea mays) [8]; 62.5 g ai/ha, 100=total damage to plant, 0=no damage to plant, read-out: plant damage rating, Corn) | plant injury at 250 g/ha (corn (Zea mays) [8]; 250 g ai/ha, read-out: Corn damage rating (100=total damage to plant; 0=no damage to plant)) | pest or weed control at 15.625 g/ha ([9]; 15.625 g ai/ha, read-out: Foxtail, Giant damage rating (100=total damage to plant; 0=no damage to plant)) | pest or weed control at 62.5 g/ha ([9]; 62.5 g ai/ha, 100=total damage to plant, 0=no damage to plant, read-out: plant damage rating, Foxtail, Giant) | pest or weed control at 250 g/ha ([9]; 250 g ai/ha, read-out: Foxtail, Giant damage rating (100=total damage to plant; 0=no damage to plant)) | pest or weed control at 15.625 g/ha ([10]; 15.625 g ai/ha, read-out: Barnyard grass damage rating (100=total damage to plant; 0=no damage to plant)) | pest or weed control at 62.5 g/ha ([10]; 62.5 g ai/ha, 100=total damage to plant, 0=no damage to plant, read-out: plant damage rating, Barnyardgrass) | pest or weed control at 250 g/ha ([10]; 250 g ai/ha, read-out: Barnyardgrass damage rating (100=total damage to plant; 0=no damage to plant)) | pest or weed control at 15.625 g/ha ([11]; 15.625 g ai/ha, read-out: Velvetleaf damage rating (100=total damage to plant; 0=no damage to plant)) | pest or weed control at 62.5 g/ha ([11]; 62.5 g ai/ha, 100=total damage to plant, 0=no damage to plant, read-out: plant damage rating, Velvetleaf) | pest or weed control at 250 g/ha ([11]; 250 g ai/ha, read-out: Velvetleaf damage rating (100=total damage to plant; 0=no damage to plant)) | pest or weed control at 15.625 g/ha ([12]; 15.625 g ai/ha, read-out: Morning-glory, Ivy-leaved damage rating (100=total damage to plant; 0=no damage to plant)) | pest or weed control at 62.5 g/ha ([12]; 62.5 g ai/ha, 100=total damage to plant, 0=no damage to plant, read-out: plant damage rating, Morningglory, Ivy-leaved) | pest or weed control at 250 g/ha ([12]; 250 g ai/ha, read-out: Morningglory, Ivy-leaved damage rating (100=total damage to plant; 0=no damage to plant))
